This note sets out measurements from patent US11623919B2, “Heterocyclic P2X7 antagonists” (AXXAM S.P.A., priority 2017, dated 2023).

Assay in all cases: Screen Quest Fluo-8 No Wash Calcium Assay (Bz-ATP evoked Ca2+ influx, FLIPR)
What all share (format): cell-based

In experiment [1] the target is T1, P2X7 receptor (Homo sapiens, UniProt Q99572).
T1 sequence (Q99572 1-595): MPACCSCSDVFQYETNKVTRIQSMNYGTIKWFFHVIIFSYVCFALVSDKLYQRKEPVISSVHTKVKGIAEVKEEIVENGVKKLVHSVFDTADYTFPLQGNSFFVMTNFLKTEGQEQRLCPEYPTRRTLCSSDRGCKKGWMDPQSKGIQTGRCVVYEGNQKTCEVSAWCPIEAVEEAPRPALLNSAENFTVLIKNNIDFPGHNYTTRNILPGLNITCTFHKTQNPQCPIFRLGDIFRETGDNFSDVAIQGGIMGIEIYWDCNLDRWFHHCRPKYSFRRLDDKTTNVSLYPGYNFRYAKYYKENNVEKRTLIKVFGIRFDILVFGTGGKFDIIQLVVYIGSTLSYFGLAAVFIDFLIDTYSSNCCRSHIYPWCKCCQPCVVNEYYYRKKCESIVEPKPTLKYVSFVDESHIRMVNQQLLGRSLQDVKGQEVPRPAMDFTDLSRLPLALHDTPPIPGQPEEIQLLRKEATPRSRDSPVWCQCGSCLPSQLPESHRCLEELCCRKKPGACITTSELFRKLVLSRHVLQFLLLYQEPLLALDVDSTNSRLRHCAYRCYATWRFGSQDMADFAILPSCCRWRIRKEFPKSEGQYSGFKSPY
Further details: hP2X7 (IC50; nM); other: hP2X7; HEK-293 cells stably transfected with P2X7 receptor, Bz-ATP at EC80, Fluo-8 NW; potency. The settings on record: hP2X7; HEK-293 cells stably transfected with P2X7 receptor, Bz-ATP at EC80, Fluo-8 NW; potency ranges A-D. A digest of the protocol: (§1)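 HEK-293 cells stably expressing P2X7 were loaded with Fluo-8 NW for 1 h at RT, then given compound, and 5 min later Bz-ATP at EC80. Fluorescence was read by FLIPR in low divalent cation buffer (0.3 mM Ca2+, 0 mM Mg2+). IC50 came from percent inhibition relative to reference antagonist A438079.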

Experiment [2] concerns the target T2, P2X7 receptor (Rattus norvegicus, UniProt Q64663).
T2 construct: rP2X7 (IC50; nM); other: rP2X7; HEK-293 cells stably transfected with P2X7 receptor, Bz-ATP at EC80, Fluo-8 NW; potency
T2 sequence (Q64663 1-595): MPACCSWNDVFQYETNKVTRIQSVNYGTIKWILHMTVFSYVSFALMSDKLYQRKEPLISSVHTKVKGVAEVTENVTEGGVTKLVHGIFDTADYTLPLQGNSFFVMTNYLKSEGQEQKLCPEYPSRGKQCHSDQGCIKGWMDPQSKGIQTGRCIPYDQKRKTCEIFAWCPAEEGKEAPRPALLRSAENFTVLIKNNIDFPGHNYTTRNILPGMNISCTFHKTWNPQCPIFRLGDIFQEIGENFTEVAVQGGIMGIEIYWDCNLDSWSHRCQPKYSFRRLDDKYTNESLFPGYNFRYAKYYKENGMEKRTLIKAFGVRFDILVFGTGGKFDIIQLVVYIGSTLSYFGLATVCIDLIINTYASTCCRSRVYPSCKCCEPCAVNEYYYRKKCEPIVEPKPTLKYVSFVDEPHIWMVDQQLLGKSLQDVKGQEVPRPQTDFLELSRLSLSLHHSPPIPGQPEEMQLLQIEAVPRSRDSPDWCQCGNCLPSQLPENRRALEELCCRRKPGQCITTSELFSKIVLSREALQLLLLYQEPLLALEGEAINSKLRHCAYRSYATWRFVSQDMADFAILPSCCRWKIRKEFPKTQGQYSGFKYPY
To be noted: rP2X7; HEK-293 cells stably transfected with P2X7 receptor, Bz-ATP at EC80, Fluo-8 NW; potency ranges A-D. The essentials:
as §1

For experiment [3], the target named is T3, P2X7 receptor (Mus musculus, UniProt Q9Z1M0).
T3 construct: mP2X7 (IC50; nM); other: mP2X7; HEK-293 cells stably transfected with P2X7 receptor, Bz-ATP at EC80, Fluo-8 NW; potency
T3 sequence (Q9Z1M0 1-595): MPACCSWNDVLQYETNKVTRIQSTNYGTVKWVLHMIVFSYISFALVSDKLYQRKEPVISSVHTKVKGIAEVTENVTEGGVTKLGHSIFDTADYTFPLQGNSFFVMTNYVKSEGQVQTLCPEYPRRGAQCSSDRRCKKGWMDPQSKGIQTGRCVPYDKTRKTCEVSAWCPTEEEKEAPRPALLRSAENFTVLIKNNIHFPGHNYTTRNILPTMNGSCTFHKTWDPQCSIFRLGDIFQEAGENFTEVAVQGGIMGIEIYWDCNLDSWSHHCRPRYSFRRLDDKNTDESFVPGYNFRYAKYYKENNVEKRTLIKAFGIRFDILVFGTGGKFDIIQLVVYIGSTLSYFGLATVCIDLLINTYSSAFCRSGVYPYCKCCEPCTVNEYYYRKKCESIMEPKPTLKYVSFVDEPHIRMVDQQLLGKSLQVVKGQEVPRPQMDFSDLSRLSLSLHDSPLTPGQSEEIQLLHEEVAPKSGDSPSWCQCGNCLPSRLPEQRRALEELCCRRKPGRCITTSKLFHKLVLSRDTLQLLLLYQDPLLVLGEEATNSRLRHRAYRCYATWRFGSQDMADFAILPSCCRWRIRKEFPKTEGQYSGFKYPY
The settings on record: mP2X7; HEK-293 cells stably transfected with P2X7 receptor, Bz-ATP at EC80, Fluo-8 NW; potency ranges A-D. A digest of the protocol: as §1

Molecules are shown by their SMILES.

In general, IC50 refers to the concentration at which inhibition is half-maximal. Turning to `O=c1onc(Cc2ccncc2)n1CC1CCCCC1` [Example 111, 4-(cyclohexylmethyl)-3-(pyridin-4-ylmethyl)-4,5-dihydro-1,2,4-oxadiazol-5-one], the IC50 on P2X7 receptor [1] is above 10000 nM; on P2X7 receptor [2], 1000 to 10000 nM; on P2X7 receptor [3], 200 to 1000 nM.

In the case of `COc1ccc(Cn2c(Cc3c(F)cccc3Cl)noc2=O)cc1` [Example 68, 3-[(2-chloro-6-fluorophenyl)methyl]-4-[(4-methoxyphenyl)methyl]-4,5-dihydro-1,2,4-oxadiazol-5-one], the half-maximal inhibitory concentration (IC50) was 1000 to 10000 nM on P2X7 receptor [1], above 10000 nM on P2X7 receptor [2] and above 10000 nM at P2X7 receptor [3].

As for `O=c1onc(Cc2c(F)cccc2Cl)n1CCCN1CCC(F)(F)CC1` [Example 182, 3-[(2-chloro-6-fluorophenyl)methyl]-4-[3-(4,4-difluoropiperidin-1-yl)propyl]-4,5-dihydro-1,2,4-oxadiazol-5-one], the IC50 was 1000 to 10000 nM at P2X7 receptor [1], above 10000 nM at P2X7 receptor [2] and above 10000 nM at P2X7 receptor [3].

Take `O=c1onc(Cc2ccc(F)cc2)n1Cc1ccc(F)cc1F` [Example 53, 4-[(2,4-difluorophenyl)methyl]-3-[(4-fluorophenyl)methyl]-4,5-dihydro-1,2,4-oxadiazol-5-one]: the IC50 at P2X7 receptor [1] was above 10000 nM; at P2X7 receptor [2], 200 to 1000 nM; at P2X7 receptor [3], above 10000 nM.

Consider `Cc1ncsc1Cn1c(Cc2c(F)cccc2Cl)noc1=O` [Example 31, 3-[(2-chloro-6-fluorophenyl)methyl]-4-[(4-methyl-1,3-thiazol-5-yl)methyl]-4,5-dihydro-1,2,4-oxadiazol-5-one], for which the IC50 at P2X7 receptor [1] was 1000 to 10000 nM; at P2X7 receptor [2] it was above 10000 nM; at P2X7 receptor [3] it was above 10000 nM.

In the case of `CC1CC(F)(F)CCN1Cc1noc(=O)n1Cc1ccc(F)cc1` (stereo not drawn) [Example 227, 3-[(4,4-difluoro-2-methylpiperidin-1-yl)methyl]-4-[(4-fluorophenyl)methyl]-4,5-dihydro-1,2,4-oxadiazol-5-one], the concentration for half-maximal inhibition (IC50) at P2X7 receptor [1] was in the range of 1000 to 10000 nM; on P2X7 receptor [2], 200 to 1000 nM; on P2X7 receptor [3] it was 1000 to 10000 nM.

Take `COc1cccc(Cn2c(Cc3c(F)cccc3Cl)noc2=O)c1` [Example 57, 3-[(2-chloro-6-fluorophenyl)methyl]-4-[(3-methoxyphenyl)methyl]-4,5-dihydro-1,2,4-oxadiazol-5-one]: the IC50 at P2X7 receptor [1], on P2X7 receptor [2] and at P2X7 receptor [3] was 1000 to 10000 nM each time.

As to `O=c1onc(Cc2c(F)cccc2Cl)n1CC1CC2C(C1)C2(F)F` (stereo not drawn) [Example 173, 3-[(2-chloro-6-fluorophenyl)methyl]-4-({6,6-difluorobicyclo[3.1.0]-hexan-3-yl}methyl)-4,5-dihydro-1,2,4-oxadiazol-5-one], the IC50 at P2X7 receptor [1] was below 200 nM; on P2X7 receptor [2], below 200 nM; on P2X7 receptor [3], 200 to 1000 nM.

Take `O=c1onc(Cc2cccc(C(F)(F)F)c2Cl)n1CC1CCC(F)(F)CC1` [Example 155, 3-{[2-chloro-3-(trifluoromethyl)phenyl]methyl}-4-[(4,4-difluorocyclohexyl)methyl]-4,5-dihydro-1,2,4-oxadiazol-5-one]: the IC50 on P2X7 receptor [1] was below 200 nM; at P2X7 receptor [2] it was 200 to 1000 nM; on P2X7 receptor [3], 200 to 1000 nM.

`COc1ccc(Cc2noc(=O)n2CC2CCCCC2)cc1` [Example 112, 4-(cyclohexylmethyl)-3-[(4-methoxyphenyl)methyl]-4,5-dihydro-1,2,4-oxadiazol-5-one]: the IC50 at P2X7 receptor [1] lay in the range of 1000 to 10000 nM; on P2X7 receptor [2], 200 to 1000 nM; at P2X7 receptor [3], 1000 to 10000 nM.

As to `O=c1onc(Cc2c(F)cccc2Cl)n1Cc1cncnc1` [Example 38, 3-[(2-chloro-6-fluorophenyl)methyl]-4-(pyrimidin-5-ylmethyl)-4,5-dihydro-1,2,4-oxadiazol-5-one], the IC50 at P2X7 receptor [1], at P2X7 receptor [2] and on P2X7 receptor [3] was above 10000 nM in each case.

With `O=c1onc(Cc2ccc(Cl)cc2Cl)n1Cc1ccc(F)cc1` [Example 74, 3-[(2,4-dichlorophenyl)methyl]-4-[(4-fluorophenyl)methyl]-4,5-dihydro-1,2,4-oxadiazol-5-one], the IC50 at P2X7 receptor [1], on P2X7 receptor [2] and at P2X7 receptor [3] was 1000 to 10000 nM throughout.
